Experimental data taken from ChEMBL document CHEMBL1141986, “Molecular docking of the highly hypolipidemic agent alpha-asarone with the catalytic portion of HMG-CoA reductase” (Bioorg Med Chem Lett, 2005).

Key:
[1] = molecular target: T1, 3-hydroxy-3-methylglutaryl-coenzyme A reductase (Homo sapiens, UniProt P04035); assay: Inhibitory concentration against HMG-CoA reductase
T1 sequence (P04035 whole entry): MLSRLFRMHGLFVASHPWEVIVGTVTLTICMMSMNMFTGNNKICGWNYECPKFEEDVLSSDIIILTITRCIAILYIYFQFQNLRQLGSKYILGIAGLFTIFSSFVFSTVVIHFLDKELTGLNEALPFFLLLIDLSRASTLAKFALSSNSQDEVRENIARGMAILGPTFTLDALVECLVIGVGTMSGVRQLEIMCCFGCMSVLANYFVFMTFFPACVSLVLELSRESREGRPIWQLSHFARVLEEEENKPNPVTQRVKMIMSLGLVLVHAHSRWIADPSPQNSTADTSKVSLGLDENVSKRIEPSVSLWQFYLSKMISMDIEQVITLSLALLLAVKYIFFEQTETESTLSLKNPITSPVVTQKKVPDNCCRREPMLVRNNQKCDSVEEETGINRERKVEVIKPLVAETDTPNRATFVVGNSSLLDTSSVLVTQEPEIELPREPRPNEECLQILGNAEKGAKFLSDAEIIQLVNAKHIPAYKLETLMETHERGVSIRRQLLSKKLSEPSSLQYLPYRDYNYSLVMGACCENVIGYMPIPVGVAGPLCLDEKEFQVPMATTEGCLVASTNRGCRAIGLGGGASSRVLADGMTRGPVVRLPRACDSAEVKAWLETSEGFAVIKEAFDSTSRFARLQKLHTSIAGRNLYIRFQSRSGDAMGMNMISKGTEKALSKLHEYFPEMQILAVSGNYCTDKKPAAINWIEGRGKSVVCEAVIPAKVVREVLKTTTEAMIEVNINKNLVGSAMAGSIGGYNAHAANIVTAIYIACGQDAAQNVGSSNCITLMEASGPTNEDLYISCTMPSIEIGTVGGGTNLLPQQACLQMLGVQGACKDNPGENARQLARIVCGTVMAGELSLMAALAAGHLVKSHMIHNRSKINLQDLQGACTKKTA

[2] = molecular target: T1, 3-hydroxy-3-methylglutaryl-coenzyme A reductase; assay: Inhibitory constant against HMG-CoA reductase
[3] = molecular target: T1, 3-hydroxy-3-methylglutaryl-coenzyme A reductase; assay: Inhibitory constant against HMG-CoA reductase with alpha asarone

IC50 [1] [µM] | Ki [2] [µM] | Ki [3] [µM] | Structure (SMILES)
4 | 0.0235 | – | CC(O)(CC(=O)O)CC(=O)O [MEGLUTOL]
0.0054 | 0.0009 | 71 | CC(C)c1nc(N(C)S(C)(=O)=O)nc(-c2ccc(F)cc2)c1/C=C/[C@@H](O)C[C@@H](O)CC(=O)O [ROSUVASTATIN]
